We go through five molecules from patent US11413278B2, “Compounds and methods for promoting stress resistance” (priority 2015, dated 2022).

The subject of assay [1] is HTB-178 lung tumor cells (EGFR+, PIK3CA+, RB1−, TP53−). In words: Killing effects on HTB-178 tumor cells. In kind it is cell-based, human. As to conditions: Assay 1(y), at 10 uM.
A further assay deals with FOXO3. In words: qPCR analysis of FOXO3-regulated genes. Format: cell-based, human. The settings on record: Homo sapiens, 24 h, Assay 10(m), at 10 uM, qPCR. The gist of the method:
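FOXO3 target-gene expression quantified by qPCR normalised to B2M, PPIA and GAPDH, in WI-38 cells after 24 h exposure to 10 μM compound. Some runs used cells first transfected 36 h with 10 nM FOXO3 or NRF2 siRNA and replated ~24 h before dosing.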

For assay [2], the system named is NRF2. In words: qPCR analysis of NRF2-regulated genes. In kind it is cell-based, human. As to conditions: Homo sapiens, 24 h, Assay 12(o), at 10 uM, qPCR. The gist of the method: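 Expression of HMOX1, NQO1, GCLC and GSTM1 measured by qPCR relative to B2M, PPIA and GAPDH. Cells were WI-38 fibroblasts exposed 24 hrs to 10 μM compound, with RNA and cDNA prepared via Cells-to-Ct. Where stated, cells were first transfected 36 hrs with FOXO3 or NRF2 siRNA at 10 nM.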
For orientation: Quantitative PCR measures a nucleic acid by following its amplification.

In assay [3] the test system is WI-38 cells. As to conditions: for Assay 1: H2O2-resistant: YES/NO, if NO, possibly due to repeated freezing/thawing of stocks; for EC50: read-out: Est. ED50, dose response 0.6-20 μM, H2O2-resistance.
Assay [4] has as its system WI-38 cells. In words: CdCl2 (cadmium) resistance assay. Format: cell-based, human. As to conditions: YES/NO; for Assay 2: Cadmium-resistant: * indicates partial. The protocol: (§1) For many stress conditions tested previously, one significant correlation to longevity is the cellular resistance to H2O2 or CdCl2. Applicants then tested these small molecules, at five different final concentrations (0.25 μM to 20 μM), for cadmium and MMS resistance in WI-38 cells.
(§2) The setups on 384-well plates and incubation times were the same as for H2O2 until the time of incubation with the stressors, which was 12 hours for both cadmium and MMS assays. Applicants tested several conditions, including conditions used to assay fibroblasts from long-lived animals (Salmon et al., 2005). These conditions produced better results with the positive controls (KEAP1 and AKT1 siRNAs) in the MMS assay. Thus, for MMS, the cells were shifted from growth media—OptiMEM+10% FBS, to DMEM (Gibco)+2% BSA (no serum) just before adding small molecules, which occurred 24 hours before MMS addition.
(§3) Isolated small molecules were tested for MMS and cadmium resistance twice in two independent assays. Each small molecule was analyzed at five different concentrations (0.25 μM to 20 μM final concentration), with technical triplicates for each dose. Data were analyzed using a global variance t-test.

For assay [5], the system named is WI-38 cells. In words: MMS resistance assay. In kind it is cell-based, human. The settings on record: YES/NO; for Assay 3: MMS-resistant: * indicates partial; for Assay 5: Triple resistant: H2O2, cadmium and MMS. As for the experimental part: as §1, §2, §3
The test system of a further assay is C. elegans. In words: C. elegans lifespan assays (liquid and plate). Format: in vivo, Caenorhabditis elegans. The settings on record: Caenorhabditis elegans, at 66 uM.
For the next assay, the target named is T1, human PARP1 (Homo sapiens, UniProt P09874).
T1 construct: purchased Trevigen
T1 sequence (P09874 whole entry): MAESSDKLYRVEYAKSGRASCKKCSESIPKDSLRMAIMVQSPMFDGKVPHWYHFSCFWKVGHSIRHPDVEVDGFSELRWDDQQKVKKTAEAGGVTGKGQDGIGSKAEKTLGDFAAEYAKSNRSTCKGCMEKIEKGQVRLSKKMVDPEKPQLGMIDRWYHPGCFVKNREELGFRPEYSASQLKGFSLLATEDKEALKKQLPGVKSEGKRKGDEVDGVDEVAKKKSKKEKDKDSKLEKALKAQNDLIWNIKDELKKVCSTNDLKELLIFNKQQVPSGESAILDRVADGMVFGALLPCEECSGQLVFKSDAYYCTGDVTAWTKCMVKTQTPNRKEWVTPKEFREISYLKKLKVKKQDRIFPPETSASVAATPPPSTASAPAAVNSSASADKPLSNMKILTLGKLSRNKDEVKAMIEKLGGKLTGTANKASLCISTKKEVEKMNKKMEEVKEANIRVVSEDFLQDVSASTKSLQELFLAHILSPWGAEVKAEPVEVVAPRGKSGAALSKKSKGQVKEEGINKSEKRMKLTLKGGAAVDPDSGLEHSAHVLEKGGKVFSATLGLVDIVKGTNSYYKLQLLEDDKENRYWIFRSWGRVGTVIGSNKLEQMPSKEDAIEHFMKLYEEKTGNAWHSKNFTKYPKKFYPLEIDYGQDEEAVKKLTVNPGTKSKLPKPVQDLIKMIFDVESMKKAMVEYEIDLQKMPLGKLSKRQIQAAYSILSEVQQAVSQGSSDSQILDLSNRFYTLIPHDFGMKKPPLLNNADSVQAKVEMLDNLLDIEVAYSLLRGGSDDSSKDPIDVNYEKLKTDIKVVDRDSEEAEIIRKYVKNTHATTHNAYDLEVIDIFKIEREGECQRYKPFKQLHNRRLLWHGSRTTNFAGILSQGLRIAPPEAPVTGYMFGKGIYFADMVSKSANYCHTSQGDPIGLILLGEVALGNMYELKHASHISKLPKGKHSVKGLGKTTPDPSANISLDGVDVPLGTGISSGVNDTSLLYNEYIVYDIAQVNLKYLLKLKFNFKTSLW
In words: PARP inhibitor assay (HT Fluorescent Homogeneous PARP Inhibition Assay Kit). Format: biochemical. As to conditions: 10 μM, in vitro. The protocol: (§4) The assay was performed with the HT Fluorescent Homogeneous PARP Inhibition Assay Kit (Trevigen), following manufacturer's instructions. Briefly, nicotinamide adenine dinucleotide, human PARP1 and activated-DNA solution was added onto a 96-well plate. 54 repurchased small molecules, at 10 μM final concentration, were introduced onto the 96-well assay plate and incubated in a humid chamber at room temperature for 30 min in dark. Cycling mixture, with resazurin and cycling enzyme diaphorase, was then added and incubated further for 1 hr in dark. Reaction was terminated by adding the stopping buffer.
as §4, with “(Trevegen),” for “(Trevigen),”, “stopped” for “terminated”

Assay [6] has as its system human dermal fibroblast (HDF) primary cells. In words: H2O2-resistance in primary human dermal fibroblasts. Format: cell-based. The settings on record: YES/NO.
Assay [7] concerns NRF2. In words: in vitro. In kind it is cell-based, human. The settings on record: 10 uM; YES/NO. As for the experimental part:
For qPCR analysis, WI-38 cells were treated with small molecules (at 10 μM) (biological quadruplicates) for 24 hrs and processed for RNA isolation and reverse transcription (RT) with the Cells-to-Ct Kit (Life Technologies), following manufacturer's instructions. RT products were diluted with H2O and used for qPCR analysis on an ABI 7300 system (Life Technologies) (technical triplicates). Relative expression levels of target genes were normalized to the genes B2M, PPIA and GAPDH. To knock down the expression of FOXO3 or NRF2, WI-38 cells were transfected, using the RNAiMAX reagents (Life Technologies), with siRNA oligos (at 10 nM final concentration, 10 ml culture medium) for FOXO3 (Life Technologies) or NRF2 (Integrated DNA Technologies) on 10-cm petri dishes for 36 hrs, and then detached and aliquoted onto 96-well (for qPCR analysis) or 384-well plates (for H2O2-stress treatment). ˜24 hrs later, small molecules were introduced and incubated with cells for 24 hrs. Cells were then either processed with the Cells-to-Ct Kit to prepare RT products for qPCR analysis or subjected to H2O2 (700 μM) for 3 hrs and assayed for viability. The knockdown efficiency of FOXO3 or NRF2 was checked at 36 hrs post-transfection and at the end as well.
For qPCR analysis, WI-38 cells were treated with small molecules (at 10 μM) (biological quadruplicate) for 24 hrs and processed for RNA isolation and reverse transcription (RT) with the Cells-to-Ct Kit (Life Technologies), following manufacturer's instructions. RT products were diluted with H2O and used for qPCR analysis on a LightCycler 480 system (Roche) (technical triplicates). Relative expression levels of target genes were normalized to the genes B2M, PPIA and GAPDH. To knock down the expression of FOXO3 or NRF2, WI-38 cells were transfected with siRNA oligos (at 10 nM final concentration) for FOXO3 (Life Technologies) or NRF2 on 10-cm petri dish for 36 hrs, and then detached and aliquoted onto 96-well plates. ˜24 hrs later, small molecules were introduced and incubated with cells for 24 hrs. Cells were then processed with the Cells-to-Ct Kit to prepare RT products for qPCR analysis. The knockdown efficiency of FOXO3 or NRF2 was checked at 36 hrs post-transfection and at the end as well.
Of these, O15 and O20 consistently (in 3 of 3 experiments) required NRF2 to promote H2O2-resistance, and their resistance capacities were reduced by ˜90% on average upon NRF2 knockdown under conditions tested.

Where [8] appears, read: read-out: Induction of FOXO3-regulated genes: SOD2 normalized fold-change.
The mark [9] stands for this setting: Assay 2(z), 1.0 × 10^9 bacteria/ml, wild type + FuDR (2012 July), read-out: Lifespan assay in liquid.
Where [10] appears, read: Assay 3(aa), 2.5 × 10^9 bacteria/ml, wild type + FuDR, read-out: Lifespan assay in liquid.
The mark [11] stands for this setting: Assay 4(ab), 2.0 × 10^10 bacteria/ml, CF512 worms, no FuDR, read-out: Lifespan assay on plates.

Entries after “also recorded” stand apart in the source; their conditions may differ. Where two headings read alike, the source gives them in different places.

On to `COc1cc(-c2nc(C(N)=O)c3nc(O)n(-c4cccc(C)c4)c3n2)cc(Br)c1O` [O9], for which the “Potential killing effects on HTB-178 tumor cells, 1st” value (shortened to “Potential killing effects … 1st”) in [1] was “YES;”. In addition, in [1], the “Potential killing effects on HTB-178 tumor cells, 2nd” value was “YES”. For the same molecule, the fold induction at 10 µM in the assay on FOXO3 (read-out: Induction of FOXO3-regulated genes: SESN1 normalized fold-change) is 1.19; in the assay on FOXO3 (setting [8]), 1.15; in the assay with FOXO3 (read-out: Induction of FOXO3-regulated genes: TXNIP normalized fold-change), 1.72; in the assay with NRF2 [2] (read-out: Induction of NRF2-regulated genes: HMOX1 normalized fold-change), 1.97; in the assay with NRF2 [2] (read-out: Induction of NRF2-regulated genes: NQO1 normalized fold-change), 1.32. In addition, the “Assay 1: H2O2-resistant” value in the assay on WI-38 cells [3] is reported as “YES”. Moreover, the EC50 in the assay on WI-38 cells [3] came to 14.2 µM. For the same molecule, in the assay with WI-38 cells [4], the “Assay 4: H2O2- & Cd-resistant” value is listed as “YES”. Besides, in the assay on WI-38 cells [4], the “Assay 2: Cadmium-resistant” value is “YES”. Also, the “Assay 3: MMS-resistant” value with WI-38 cells [5] is recorded as “YES”. For the same molecule, the “Assay 5: Triple resistant” value in the assay on WI-38 cells [5] was “YES”. Besides, the ILS at 66 µM in the assay on C. elegans (setting [9]) is 6.6%; with C. elegans (setting [10]), 1.3%; in the assay on C. elegans (setting [11]), -0.3%.
As for `CC(COc1ccc2c(c1)OCO2)NC(=O)Cc1nnc(O)c2ccccc12` (stereo not drawn) [Gr-2E], the “Inhibition of PARP1” value at human PARP1 was “PARP inhibitors”. For the same molecule, in assay [6], the “Assay 6: H2O2-resistant, at 10 uM, human dermal fibroblast (HDF) primary cells” value (shortened to “Assay 6: H2O2-resistant, at 10 uM”) is listed as “YES”. In addition, the “Potential killing effects … 1st” value in assay [1] was “YES;”. Besides, the “Assay 17: NRF2-dependency for H2O2-resistance” value with NRF2 [7] is given as “YES”. Also, in the assay on WI-38 cells [3], the “Assay 1: H2O2-resistant” value is reported as “YES” and the EC50 came to 3.82 µM. Besides, in the assay on WI-38 cells [4], the “Assay 4: H2O2- & Cd-resistant” value is reported as “YES” and the “Assay 2: Cadmium-resistant” value is on record as “YES”. Further, the ILS at 66 µM in the assay with C. elegans (setting [9]) is 3.3%. The ILS at 66 µM in the assay with C. elegans (setting [10]) is 4%. Besides, the ILS at 66 µM in the assay with C. elegans (setting [11]) came to 9.7%.
Consider `Oc1nnc(Cc2ccncc2)c2ccccc12` [Gr-2B], for which the “Inhibition of PARP1” value on human PARP1 was “inhibitors of PARP1; also recorded: PARP inhibitors”. For the same molecule, the “Assay 6: H2O2-resistant, at 10 uM” value in [6] was “YES”. In addition, the “Potential killing effects … 1st” value in assay [1] is on record as “YES;”. Moreover, in the assay with WI-38 cells [3], the “Assay 1: H2O2-resistant” value is given as “YES” and the EC50 was found to be 3.05 µM. Also, in the assay with WI-38 cells [4], the “Assay 4: H2O2- & Cd-resistant” value was “YES” and the “Assay 2: Cadmium-resistant” value is “YES”. For the same molecule, in the assay on WI-38 cells [5], the “Assay 3: MMS-resistant” value was “YES” and the “Assay 5: Triple resistant” value is recorded as “YES”. Further, the ILS at 66 µM in the assay with C. elegans (setting [9]) was 2.5%. For the same molecule, the ILS at 66 µM in the assay on C. elegans (setting [10]) is -1.1%. In the assay with C. elegans (setting [11]), the ILS at 66 µM is 14.1%.
For `CC(Nc1cc(C)ccn1)=C(C#N)C#N` [O16], the “Assay 6: H2O2-resistant, at 10 uM” value in assay [6] was “YES”. The “Potential killing effects … 1st” value in assay [1] is reported as “YES;”. Besides, in assay [1], the “Potential killing effects on HTB-178 tumor cells, 2nd” value is “YES”. The EC50 in the assay with WI-38 cells [3] was determined as 20 µM. Besides, the ILS at 66 µM with C. elegans (setting [9]) turned out to be 16.8%; with C. elegans (setting [10]), 11.4%; in the assay with C. elegans (setting [11]) it was 19.7%; in the assay on C. elegans (Assay 5(ac), 1.0 × 10^11 bacteria/ml, CF512 worms, no FuDR, read-out: Lifespan assay on plates), 9.8%; with C. elegans (Assay 6(ad), 2.0 × 10^10 bacteria/ml, CF512 worms, no FuDR, read-out: Lifespan assay on plates) it was 9.9%; in the assay with C. elegans (Assay 7(ae), 1.0 × 10^11 bacteria/ml, CF512 worms, no FuDR, read-out: Lifespan assay on plates), 12.1%.
Regarding `O=C(CCCc1nnc2n3nc(-c4ccccc4)nc3c3ccccc3n12)N1CCOCC1` [O8], in assay [6], the “Assay 6: H2O2-resistant, at 10 uM” value is “YES”. Moreover, the “Potential killing effects … 1st” value in [1] is reported as “YES;”. Besides, the fold induction at 10 µM was 1.07 in the assay with FOXO3 (setting [8]) and 0.82 in the assay on NRF2 [2] (read-out: Induction of NRF2-regulated genes: GSTM1 normalized fold-change). Also, in the assay with WI-38 cells [3], the EC50 came to 20 µM. Moreover, the ILS at 66 µM with C. elegans (setting [9]) came out at 6.6%; with C. elegans (setting [10]) it was 3.8%; with C. elegans (setting [11]), 10%.
